US9999222B2, “Herbicidal combination comprising azines” (BASF SE, priority 2014, dated 2018)
Read-outs that look alike come from different tables or passages of the source.

What was measured:
Assay in all cases: Greenhouse test, pre-emergence treatment
GERPU = type: in vivo, Geranium pusillum; settings: Geranium pusillum, pre-emergence, 480 h, 20 DAT, read-out: observed % activity
In short: (§1)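 Seeds were sown in loamy sand with about 3.0% humus, and compounds in water were sprayed immediately after sowing, alone or as combinations formulated as 10% emulsion concentrates. Plants grew under hoods until rooted, at 10-25 °C or 20-35 °C by species, for 2 to 4 weeks. Damage was scored 0-100 (100 = no emergence or complete destruction), and Colby expected values were E=X+Y−(X·Y/100).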

EPHHL = type: in vivo, Euphorbia heterophylla; settings: Euphorbia heterophylla, pre-emergence, 480 h, 20 DAT, read-out: observed % activity
In short: as §1

BRADC = type: in vivo, Brachiaria decumbens; settings: Urochloa decumbens, pre-emergence, 480 h, pre-emergence, 36 g ai/ha; read-out: observed % activity 20 DAT
From the text: The culture containers used were plastic flowerpots containing loamy sand with approximately 3.0% of humus as the substrate. The seeds of the test plants were sown separately for each species.
For the pre-emergence treatment, the active ingredients, which had been suspended or emulsified in water, were applied directly after sowing by means of finely distributing nozzles. The containers were irrigated gently to promote germination and growth and subsequently covered with transparent plastic hoods until the plants had rooted. This cover caused uniform germination of the test plants, unless this had been impaired by the active ingredients.
Depending on the species, the plants were kept at 10-25° C. or 20-35° C., respectively.
The test period extended over 2 to 4 weeks. During this time, the plants were tended, and their response to the individual treatments was evaluated.
Evaluation was carried out using a scale from 0 to 100. 100 means no emergence of the plants, or complete destruction of at least the aerial moieties, and 0 means no damage, or normal course of growth. A moderate herbicidal activity is given at values of at least 60, a good herbicidal activity is given at values of at least 70, and a very good herbicidal activity is given at values of at least 85.
The respective stated components a and b, and if appropriate, c were formulated as a 10% by weight strength emulsion concentrate and, with addition of the amount of solvent system, introduced into the spray liquor used for applying the active compound.
In the examples, the solvent used was water.
In the examples below, using the method of S. R. Colby (1967) “Calculating synergistic and antagonistic responses of herbicide combinations”, Weeds 15, p. 22ff., the value E, which is expected if the activity of the individual active compounds is only additive, was calculated. E=X+Y−(X·Y/100) where • X=percent activity using active compound a at an application rate A; • Y=percent activity using active compound b at an application rate B; • E=expected activity (in %) by a+b at application rates A+B.
If the value found experimentally is higher than the value E calculated according to Colby, a synergistic effect is present.

SETFA = type: in vivo, Setaria faberi; settings: Setaria faberi, 480 h, SETFA, individual, read-out: observed % activity 20 DAT
In short: as §1

COMBE = type: in vivo, Commelina benghalensis; settings: Commelina benghalensis, pre-emergence, 480 h
In short: as §1

ALOMY = type: in vivo, Alopecurus myosuroides; settings: Alopecurus myosuroides, pre-emergence, 480 h, ALOMY, pre-emergence, read-out: observed % activity 20 DAT
In short: as §1

ECHCG = type: in vivo, Echinocloa crus-galli; settings: Echinochloa crus-galli, 480 h, ECHCG, use rate 3.125 g ai/ha, 20 DAT, read-out: observed % activity 20 DAT
In short: as §1

KCHSC = type: in vivo, Kochia scoparia
In short: as §1

POLCO = type: in vivo, Polygonum convolvulus; settings: Fallopia convolvulus, pre-emergence, 480 h; for inhibition at 6.25 g/ha: use rate 6.25 g ai/ha
In short: as §1

GALAP = type: in vivo, Galium aparine; settings: Galium aparine, pre-emergence, 480 h, pre-emergence, read-out: observed % activity 20 DAT
In short: as §1

LOLMU = type: in vivo, Lolium multiflorum; settings: Lolium multiflorum, pre-emergence, 480 h, LOLMU, pre-emergence, individual, use rate 6.25 g ai/ha; read-out: observed % activity 20 DAT
In short: as §1

[1] = 5 g ai/ha, 20 DAT, read-out: observed % activity
[2] = 10 g ai/ha, 20 DAT, read-out: observed % activity
[3] = 10 g ai/ha, read-out: observed % activity 20 DAT

CC(C)N(C)S(=O)(=O)NC(=O)c1cc(-n2c(=O)cc(C(F)(F)F)n(C)c2=O)c(F)cc1Cl [Saflufenacil, saflufenacil] gave an inhibition at 5 g/ha (GERPU; 5 g ai/ha) of 25%, an inhibition at 10 g/ha (GERPU; 10 g ai/ha) of 25% and an inhibition at 5 g/ha (EPHHL; 5 g ai/ha) of 80%. For the same compound, the inhibition at 10 g/ha (EPHHL; 10 g ai/ha) was 95%, the inhibition at 36 g/ha (BRADC) was 90% and the inhibition at 6.25 g/ha (SETFA; use rate 6.25 g ai/ha) was 0%. For the same compound, the inhibition at 12.5 g/ha (SETFA; use rate 12.5 g ai/ha) was 0%, the inhibition at 5 g/ha (COMBE; [1]) was 65% and the inhibition at 10 g/ha (COMBE; [2]) was 98%. For the same compound, the inhibition at 5 g/ha (COMBE; COMBE, individual, use rate 5 g ai/ha, read-out: observed % activity 20 DAT) was 0%, the inhibition at 10 g/ha (COMBE; COMBE, individual, use rate 10 g ai/ha, read-out: observed % activity 20 DAT) was 15% and the inhibition at 5 g/ha (COMBE; 5 g ai/ha, read-out: observed % activity 20 DAT) was 0%. It also gave an inhibition at 10 g/ha (COMBE; [3]) of 15%, an inhibition at 6.25 g/ha (ALOMY; individual, use rate 6.25 g ai/ha) of 0% and an inhibition at 12.5 g/ha (ALOMY; individual, use rate 12.5 g ai/ha) of 0%. For the same compound, the inhibition at 3.125 g/ha (ALOMY; use rate 3.125 g ai/ha, 20 DAT) was 0%, the inhibition at 3.125 g/ha (ECHCG) was 0% and the observed % activity (KCHSC; 5 g ai/ha, 20 DAT) was 85%. The inhibition at 5 g/ha (KCHSC; Bassia scoparia, pre-emergence, 480 h, 5 g ai/ha, 20 DAT, read-out: observed % activity) was 70%, the inhibition at 5 g/ha (KCHSC; Bassia scoparia, pre-emergence, 480 h, KCHSC, pre-emergence, individual, use rate 5 g ai/ha, read-out: observed % activity 20 DAT) was 70% and the inhibition at 6.25 g/ha (KCHSC; Bassia scoparia, pre-emergence, 480 h, KCHSC, pre-emergence, individual, use rate 6.25 g ai/ha, read-out: observed % activity 20 DAT) was 30%. For the same compound, the inhibition at 10 g/ha (KCHSC; Bassia scoparia, pre-emergence, 480 h, KCHSC, pre-emergence, individual, use rate 10 g ai/ha, read-out: observed % activity 20 DAT) was 65%, the inhibition at 12.5 g/ha (KCHSC; Bassia scoparia, pre-emergence, 480 h, KCHSC, pre-emergence, individual, use rate 12.5 g ai/ha, read-out: observed % activity 20 DAT) was 70% and the inhibition at 5 g/ha (KCHSC; Bassia scoparia, pre-emergence, 480 h, pre-emergence, 5 g ai/ha, read-out: observed % activity 20 DAT) was 70%. For the same compound, the inhibition at 10 g/ha (KCHSC; Bassia scoparia, pre-emergence, 480 h, pre-emergence, 10 g ai/ha, read-out: observed % activity 20 DAT) was 65%, the inhibition at 5 g/ha (POLCO; [1]) was 60% and the inhibition at 10 g/ha (POLCO; [2]) was 65%. It also gave an inhibition at 6.25 g/ha (POLCO; POLCO, individual, read-out: observed % activity 20 DAT) of 70%, an inhibition at 10 g/ha (POLCO; POLCO, individual, use rate 10 g ai/ha, read-out: observed % activity 20 DAT) of 25% and an inhibition at 12.5 g/ha (POLCO; POLCO, individual, use rate 12.5 g ai/ha, read-out: observed % activity 20 DAT) of 85%. It also gave an inhibition at 10 g/ha (POLCO; [3]) of 25%, an inhibition at 6.25 g/ha (POLCO; POLCO, 20 DAT, read-out: observed % activity 20 DAT) of 70% and an inhibition at 5 g/ha (GALAP; GALAP, individual, use rate 5 g ai/ha) of 25%. It also gave an inhibition at 10 g/ha (GALAP; GALAP, individual, use rate 10 g ai/ha) of 50%, an inhibition at 5 g/ha (GALAP; 5 g ai/ha) of 25% and an inhibition at 10 g/ha (GALAP; 10 g ai/ha) of 50%. The inhibition at 6.25 g/ha (LOLMU) was 0%.
